Measured values published in patent publication US5385899A, “Aminoalkyl-substituted 5,6-dihydro-dibenz[b,e]azepine-6,11-dione-11-oximes” (Bayer Aktiengesellschaft, priority 1991, dated 1995).
Read-outs that look alike come from different tables or passages of the source.

Test system: HIV
Assay: HIV infection in cell culture: suppression of virus-induced syncytia (PBLs or H9 cells)
Assay type: cell-based
Details: read-out: IC50 (suppression of 50% of virus-induced syncytia)
Experimental: The HIV test was carried out with slight modifications according to the method of Pauwels et al. [cf. Journal of Virological Methods 20, (1988), 309-321].
Normal human blood lyphocytes (PBLs) were concentrated by means of Ficoll-Hypaque and stimulated with phytohaemagglutinin (90 μg/ml) and interleukin-2 (40 U/ml) in RPMI 1640 and 20% foetal calf serum. For infection with the infectious HIV, PBLs were pelleted and the cell pellet was then suspended in 1 ml of HIV virus adsorption solution and incubated for 1 hour at 37° C.
Alternatively, HIV-susceptible H9 cells were employed instead of normal human blood lymphocytes for testing the antiviral effects of the compounds according to the invention.
The virus adsorption solution was centrifuged and the infected cell pellet was taken up in growth medium so that a concentration of 1×10^5 cells per ml was established. The cells infected in this way were pipetted into the wells of 96-well microtiter plates to give 1×10^4 cells/well.
The first vertical row of the microtiter plate contained only growth medium and cells which had not been infected, but otherwise treated exactly as described above (cell control). The second vertical row of the microtiter plate contained only HIV-infected cells (virus control) in growth medium. The other wells contained the compounds according to the invention in differing concentrations, starting from the wells of the 3rd vertical row of the microtiter plate, from which the test substances were diluted 2^10 times in 2-fold steps.
The test batches were incubated at 37° C. until, in the untreated virus control, the syncytia formation typical of HIV occurred (between day 3 and 6 after infection), which was then microscopically assessed. Under these test conditions, in the untreated virus control about 20-50 syncytia resulted, while the untreated cell control contained no syncytia.
The IC50 values were determined as the concentration of the treated and infected cells at which 50% (about 10-20 syncytia) of the virus-induced syncytia were suppressed by treatment with the compound according to the invention.

[1] = Human immunodeficiency virus 1, 72 h, HIV-infected PBLs or alternatively H9 cells, syncytia assessed microscopically between day 3 and 6 after infection, 37° C.

| IC50 [1] [nM] | Compound | IC50 (Human immunodeficiency virus 1, H9, 72 h) [nM] |
| --- | --- | --- |
| 380 | CN(C)CCON=c1c2cc(Cl)ccc2[nH]c(=O)c2ccccc12 (mixture of isomers) [Example 1, (E/Z)-2-Chloro-11-(2-dimethylaminoethoxyimino)-6-oxo-5,6-dihydro-11H-dibenz[b,e] azepine] | – |
| – | Cc1ccnc2c1NC(=O)c1cccnc1N2C1CC1 [BIRG 587, reference compound] | 90 |
| 1500 | O=c1[nH]c2ccc(Cl)cc2c(=NOCCN2CCOCC2)c2ccccc12 [Example 3] | – |
